Literature values, collected in patent US20240315993A1, “ANTIPARASITIC COMPOUNDS” (Intervet Inc., priority 2021, published 2024).

Assays:
[1] = tested on: Beet Armyworm (Spodoptera exigua); conditions: Beet Armyworm second instar larvae, 128-well diet tray, 50 μg/cm^2, five to seven days, average of eight wells; cited from earlier work
[2] = tested on: Cabbage Looper (Trichoplusia ni); conditions: Cabbage Looper second instar larvae, 128-well diet tray, 50 μg/cm^2, five to seven days, average of eight wells; cited from earlier work
[3] = tested on: Yellow Fever Mosquito (Aedes aegypti); conditions: Aedes aegypti larvae about 1 day old, 96-well plate, scored after 3 days; cited from earlier work

Structure (SMILES)	Test A: Bioassay on BAW, percent mortality rating [1]	Test B: Bioassay on CL, percent mortality rating [2]	Test C: Bioassay on Yellow Fever Mosquito, mortality rating [3]
Cc1cc(NC(=O)OC(C)(C)C)ccc1NC(=O)c1cc(NC(=O)C2C(c3cc(Cl)cc(Cl)c3)C2(Cl)Cl)ccc1Cl (stereo not drawn) [c81]	A (50-100)	A (50-100)	A (80-100)
Cc1cc(N)ccc1NC(=O)c1cc(NC(=O)C2C(c3cc(Cl)c(Cl)c(Cl)c3)C2(Cl)Cl)ccc1Cl (stereo not drawn) [c84]	A (50-100)	A (50-100)	A (80-100)
N#Cc1ccc(NC(=O)c2cc(NC(=O)C3C(c4cc(Cl)cc(Cl)c4)C3(Cl)Cl)ccc2Cl)c(C#N)c1 (stereo not drawn) [c85]	A (50-100)	A (50-100)	A (80-100)
CN1C(=O)CCc2cc(NC(=O)c3cc(NC(=O)C4C(c5cc(Cl)cc(Cl)c5)C4(Cl)Cl)ccc3Cl)ccc21 (stereo not drawn) [c86]	A (50-100)	A (50-100)	A (80-100)
CN1CCCc2cc(NC(=O)c3cc(NC(=O)C4C(c5cc(Cl)cc(Cl)c5)C4(Cl)Cl)ccc3Cl)ccc21 (stereo not drawn) [c87]	A (50-100)	A (50-100)	A (80-100)
O=C(Nc1ccc2c(c1)CCCN2)c1cc(NC(=O)C2C(c3cc(Cl)cc(Cl)c3)C2(Cl)Cl)ccc1Cl (stereo not drawn) [c88]	A (50-100)	A (50-100)	A (80-100)
Cc1cc(N)ccc1NC(=O)c1cc(NC(=O)C2C(c3ccc(F)c(Cl)c3)C2(Cl)Cl)ccc1Cl (stereo not drawn) [c89]	A (50-100)	A (50-100)	A (80-100)
CC(=O)Nc1cccc(NC(=O)c2cc(NC(=O)C3C(c4cc(Cl)cc(Cl)c4)C3(Cl)Cl)ccc2Cl)n1 (stereo not drawn) [c90]	A (50-100)	A (50-100)	A (80-100)
N#Cc1ccc(NC(=O)c2cc(NC(=O)C3C(c4cc(Cl)cc(Cl)c4)C3(Cl)Cl)ccc2Cl)nc1N (stereo not drawn) [c91]	A (50-100)	A (50-100)	D (No activity noticed in this bioassay)
CS(=NC#N)c1ccc(NC(=O)c2cc(NC(=O)C3C(c4cc(Cl)cc(Cl)c4)C3(Cl)Cl)ccc2Cl)cc1 (stereo not drawn) [c92]	A (50-100)	A (50-100)	A (80-100)
O=C(Nc1ccc2c(ccn2CCF)c1)c1cc(NC(=O)C2C(c3cc(Cl)cc(Cl)c3)C2(Cl)Cl)ccc1Cl (stereo not drawn) [c93]	A (50-100)	A (50-100)	A (80-100)
O=C(Nc1ccc2[nH]c(-c3ccccc3)cc2c1)c1cc(NC(=O)C2C(c3cc(Cl)cc(Cl)c3)C2(Cl)Cl)ccc1Cl (stereo not drawn) [c94]	A (50-100)	A (50-100)	A (80-100)
Cc1cccc(NC(=O)c2cc(NC(=O)C3C(c4cc(Cl)cc(Cl)c4)C3(Cl)Cl)ccc2Cl)c1C#N (stereo not drawn) [c95]	A (50-100)	A (50-100)	A (80-100)
CN1Cc2ccc(NC(=O)c3cc(NC(=O)C4C(c5cc(Cl)cc(Cl)c5)C4(Cl)Cl)ccc3Cl)cc2C1 (stereo not drawn) [c96]	A (50-100)	A (50-100)	A (80-100)
CC(C)(C)OC(=O)Nc1cccc(NC(=O)c2cc(NC(=O)C3C(c4cc(Cl)cc(Cl)c4)C3(Cl)Cl)ccc2Cl)n1 (stereo not drawn) [c97]	A (50-100)	A (50-100)	D (No activity noticed in this bioassay)
CC(C)(C)OC(=O)Nc1cccc(NC(=O)c2cc(NC(=O)C3C(c4ccc(F)c(Cl)c4)C3(Cl)Cl)ccc2Cl)n1 (stereo not drawn) [c98]	A (50-100)	A (50-100)	A (80-100)
O=C(Nc1ccc2c(c1)CCN2)c1cc(NC(=O)C2C(c3cc(Cl)cc(Cl)c3)C2(Cl)Cl)ccc1Cl (stereo not drawn) [c99]	A (50-100)	A (50-100)	A (80-100)
CNc1ccc(NC(=O)c2cc(NC(=O)C3C(c4ccc(Br)c(Cl)c4)C3(Cl)Cl)ccc2Cl)c(C)c1 (stereo not drawn) [c100]	A (50-100)	A (50-100)	A (80-100)
Cc1cc(N)ccc1NC(=O)c1cc(NC(=O)C2C(c3ccc(Br)c(Cl)c3)C2(Cl)Cl)ccc1Cl (stereo not drawn) [c101]	A (50-100)	A (50-100)	A (80-100)
Cc1cc(NC(=O)OC(C)(C)C)ccc1NC(=O)c1cc(NC(=O)C2C(c3cc(Cl)cc(Br)c3)C2(Cl)Cl)ccc1Cl (stereo not drawn) [c102]	A (50-100)	A (50-100)	D (No activity noticed in this bioassay)
Cc1cc(N)ccc1NC(=O)c1cc(NC(=O)C2C(c3cc(Cl)cc(Br)c3)C2(Cl)Cl)ccc1Cl (stereo not drawn) [c103]	A (50-100)	A (50-100)	A (80-100)
CN1Cc2ccc(NC(=O)c3cc(NC(=O)C4C(c5cc(Cl)cc(Cl)c5)C4(Cl)Cl)ccc3Cl)cc2C1=O (stereo not drawn) [c104]	A (50-100)	A (50-100)	A (80-100)
CN1Cc2cc(NC(=O)c3cc(NC(=O)C4C(c5cc(Cl)cc(Cl)c5)C4(Cl)Cl)ccc3Cl)ccc2C1=O (stereo not drawn) [c105]	A (50-100)	A (50-100)	A (80-100)
